The record followed here is PubChem BioAssay (NCI).

Some test systems named below: OVCAR-4 ovarian; SK-OV-3 ovarian; LOX IMVI melanoma; IGROV1 ovarian; SNB-78 CNS; OVCAR-3 ovarian; EKVX NSCLC; HOP-62 NSCLC; DMS 114 small cell lung; OVCAR-5 ovarian.
Holding throughout (experiment): NCI-60 cell line screen, 48 h

SMILES strings stand for the structures.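 How tested: cells in 96-well plates exposed to compound for 48 hours at five concentrations. Abbreviation: GI50, concentration required for 50% inhibition of growth. Definition used: TGI = concentration required for complete inhibition of growth.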

Consider `CC(=O)N1CCN(C=S)CC1`, for which the TGI in the assay on OVCAR-4 ovarian, in the assay with SK-OV-3 ovarian, in the assay with LOX IMVI melanoma, with IGROV1 ovarian, in the assay with SNB-78 CNS and with OVCAR-3 ovarian was above 100 µM throughout. In addition, the TGI in the assay with EKVX NSCLC, in the assay on HOP-62 NSCLC, with DMS 114 small cell lung and in the assay on OVCAR-5 ovarian was above 100 µM throughout.
`C/C(=N\NS(=O)(=O)c1ccccc1)c1ccc[n+]([O-])n1`: the TGI in the assay on OVCAR-4 ovarian, with SK-OV-3 ovarian, with IGROV1 ovarian, with SNB-78 CNS, with OVCAR-3 ovarian and with EKVX NSCLC was above 100 µM in each case. The TGI with HOP-62 NSCLC, in the assay with DMS 114 small cell lung and with OVCAR-5 ovarian was above 100 µM throughout.
In the case of `CCCCCCC(=O)CC(=O)C(=O)Nc1ccccc1C`, the TGI in the assay on OVCAR-4 ovarian is above 100 µM; in the assay on SK-OV-3 ovarian, above 100 µM; with LOX IMVI melanoma, above 59 µM; in the assay on IGROV1 ovarian, above 100 µM; in the assay on SNB-78 CNS, above 100 µM; with OVCAR-3 ovarian it was above 100 µM. For the same molecule, the TGI with EKVX NSCLC, in the assay with HOP-62 NSCLC, with DMS 114 small cell lung and in the assay on OVCAR-5 ovarian was above 100 µM each time.
Consider `NC(C(=O)O)c1ccc(C(=O)O)cc1` (stereo not drawn), for which the TGI in the assay on OVCAR-4 ovarian, in the assay on SK-OV-3 ovarian, in the assay with LOX IMVI melanoma, in the assay on IGROV1 ovarian, in the assay with SNB-78 CNS and in the assay on OVCAR-3 ovarian was above 100 µM each time. The TGI in the assay on EKVX NSCLC, in the assay with HOP-62 NSCLC, with DMS 114 small cell lung and in the assay with OVCAR-5 ovarian was above 100 µM in each case.
On to `Cc1ccc(SSCCCCS(=O)O)cc1`, for which the TGI in the assay on OVCAR-4 ovarian was 32 µM; with SK-OV-3 ovarian, 71 µM; with LOX IMVI melanoma, 76.1 µM; in the assay on IGROV1 ovarian, 18.8 µM; in the assay on SNB-78 CNS, above 100 µM; in the assay with OVCAR-3 ovarian, 67.7 µM. For the same molecule, the TGI in the assay on EKVX NSCLC came to 55.6 µM; in the assay with HOP-62 NSCLC, 81.1 µM; in the assay on DMS 114 small cell lung it was 41.9 µM; in the assay with OVCAR-5 ovarian, 96.3 µM.
As for `N#CCCn1c(CCC(=O)Nc2ccc(Cl)cc2Cl)n[nH]c1=S`, the TGI in the assay with OVCAR-4 ovarian, in the assay with SK-OV-3 ovarian, in the assay with LOX IMVI melanoma, in the assay on IGROV1 ovarian, in the assay with SNB-78 CNS and in the assay on OVCAR-3 ovarian was above 100 µM throughout. Further, the TGI with HOP-62 NSCLC, with DMS 114 small cell lung and in the assay with OVCAR-5 ovarian was above 100 µM in each case.
For the molecule `COc1ccc([Se]c2ccc(OC)cc2)cc1`, the TGI with SK-OV-3 ovarian, in the assay with LOX IMVI melanoma, with IGROV1 ovarian, with OVCAR-3 ovarian, in the assay with HOP-62 NSCLC and in the assay with DMS 114 small cell lung was above 100 µM each time.
Regarding `CCCCCCCCC(=O)NCCN(CCN)C(=O)CCCCCCCC`, the TGI in the assay on OVCAR-4 ovarian turned out to be 16.2 µM; with SK-OV-3 ovarian, 29.9 µM; with LOX IMVI melanoma, 9.06 µM; in the assay with IGROV1 ovarian, 19.5 µM; in the assay with SNB-78 CNS it was 23.4 µM; with OVCAR-3 ovarian it was 30.9 µM. Further, the TGI in the assay on EKVX NSCLC worked out at 36.2 µM; with HOP-62 NSCLC, 30.6 µM; in the assay on DMS 114 small cell lung it was 10.1 µM; in the assay on OVCAR-5 ovarian, 30.5 µM.
Take `Cc1ccccc1NC(=O)CC(=O)n1nc(-c2ccccc2)c(N=Nc2ccc([N+](=O)[O-])cc2)c1-c1ccccc1`: the TGI in the assay on OVCAR-4 ovarian is above 100 µM; in the assay on SK-OV-3 ovarian, 57.7 µM; in the assay on LOX IMVI melanoma, 46.6 µM; with IGROV1 ovarian, above 100 µM; with SNB-78 CNS, above 100 µM; with OVCAR-3 ovarian it was 37.3 µM. Moreover, the TGI in the assay on EKVX NSCLC was 88.1 µM; in the assay with HOP-62 NSCLC, 48.3 µM; in the assay on DMS 114 small cell lung, 30.3 µM; in the assay on OVCAR-5 ovarian, above 100 µM.
Take `O=C1CC2OCC=C3CN4CCC56c7ccccc7N1C5C2C3CC46` (stereo not drawn) (tested in a mixture with another compound): the GI50 with OVCAR-4 ovarian, in the assay with SK-OV-3 ovarian, with LOX IMVI melanoma, in the assay with IGROV1 ovarian, in the assay with OVCAR-3 ovarian and with EKVX NSCLC was above 50 µg/mL each time. Further, the GI50 with HOP-62 NSCLC and in the assay with OVCAR-5 ovarian was above 50 µg/mL in each case. Moreover, the TGI in the assay on OVCAR-4 ovarian, in the assay with SK-OV-3 ovarian, in the assay with LOX IMVI melanoma, in the assay with IGROV1 ovarian, in the assay on OVCAR-3 ovarian and in the assay with EKVX NSCLC was above 50 µg/mL each time. For the same molecule, the TGI with HOP-62 NSCLC and in the assay on OVCAR-5 ovarian was above 50 µg/mL each time.
On to `CC1(C)N=C(N)N=C(N)N1c1ccc(CCC(=O)Nc2cccc(S(=O)(=O)F)c2)cc1`, for which the GI50 in the assay with OVCAR-4 ovarian is above 100 µM; in the assay on SK-OV-3 ovarian, above 100 µM; with LOX IMVI melanoma, 3.54 µM; in the assay on IGROV1 ovarian it was 1.09 µM; with OVCAR-3 ovarian, 54.1 µM; in the assay with EKVX NSCLC, above 100 µM. Besides, the GI50 is 6.56 µM with HOP-62 NSCLC and above 100 µM in the assay on OVCAR-5 ovarian. Moreover, the TGI in the assay on OVCAR-4 ovarian is above 100 µM; with SK-OV-3 ovarian, above 100 µM; in the assay on LOX IMVI melanoma it was above 100 µM; with IGROV1 ovarian it was 5 µM; in the assay with OVCAR-3 ovarian it was above 100 µM; with EKVX NSCLC, above 100 µM. The TGI in the assay with HOP-62 NSCLC and in the assay on OVCAR-5 ovarian was above 100 µM each time.
With `O=S1Cc2ccccc2CSS1` (stereo not drawn), the TGI was 31.7 µM with OVCAR-4 ovarian; above 100 µM with SK-OV-3 ovarian; 17.3 µM in the assay with LOX IMVI melanoma; above 100 µM with IGROV1 ovarian; 62 µM in the assay on SNB-78 CNS; 31.1 µM in the assay with OVCAR-3 ovarian. Moreover, the results for the TGI with EKVX NSCLC, with DMS 114 small cell lung and in the assay on OVCAR-5 ovarian were 53.9 µM, 34.6 µM and 37.4 µM, respectively.
As to `NCCNc1ncnc2ccc(Cl)cc12`, the TGI in the assay on OVCAR-4 ovarian, with SK-OV-3 ovarian, with LOX IMVI melanoma, in the assay with IGROV1 ovarian, in the assay with OVCAR-3 ovarian and with EKVX NSCLC was above 100 µM each time. The TGI with HOP-62 NSCLC and with OVCAR-5 ovarian was above 100 µM each time.
